Data as given in US4271163A, “Novel 3,4-diaza-bicyclo[4.1.0]hept-2-en-5-ones, their preparation, and therapeutic agents containing these compounds” (BASF Aktiengesellschaft, priority 1978, dated 1981).
≈ marks a conversion by molar mass, not a printed value. Where two headings read alike, the source gives them in different places.

Columns and labels:
human thrombocytes = assay: Inhibition of the collagen-induced aggregation of human thrombocytes in vitro; type: cell-based; conditions: for EC50: 10 min, read-out: Inhibition of collagen-induced thrombocyte aggregation in vitro, EC 50%; for Inhibition of aggregation, R.A. (relative activity): acetylsalicylic acid = 1.00
Method: 1. Inhibition of the collagen-induced aggregation of human thrombocytes in vitro.
(§1) Thrombocyte-rich plasma is obtained by centrifuging venous citrate blood (300 g, 10 minutes duration at 4° C.). The photometric measurement of the thrombocyte aggregation is carried out with addition of MgCl2 (final concentration 10 millimoles/l) and of collagen Stago (final concentration 0.02 mg/ml) in a Born Mk 3 aggregometer. The maximum extinction change/sec is used as a measure of the aggregation.
The aggregation-inhibiting activity of the substances is tested after an incubation time of 10 minutes.
The EC 50% is taken to be the concentration causing 50% inhibition of aggregation.
(§2) The effective doses or effective concentrations were calculated from the linear relationships between the logarithm of the dose or concentration and the logarithm of the effect, by means of regression analysis.
(§3) Acetylsalicylic acid was used as the reference substance for the inhibition of thrombocyte aggregation and dihydralazine for the anti-hypertensive effect.

narcotized rats = assay: Anti-hypertensive effect on narcotized rats; type: in vivo, rat (male Sprague-Dawley); conditions: rats under urethane narcosis, intraperitoneal; for ED (20%): Rattus norvegicus, ip, dose which lowers the blood pressure by 20%, read-out: Reduction in blood pressure, ED 20%; for Reduction in blood pressure, R.A. (relative activity): dihydralazine = 1.00
Method: 3. Anti-hypertensive effect on narcotized rats.
To test the anti-hypertensive effect, the substances are administered intraperitoneally to groups of 3-5 male Sprague-Dawley rats weighing 240-280 g, under urethane narcosis ([…] given intraperitoneally).
The measurement of the blood pressure in the carotid artery is carried out by means of Statham transducers. The ED 20% is determined as the dose which lowers the mean carotid blood pressure by 20%.
as §2, §3

rat thrombocytes = assay: Inhibition of the collagen-induced aggregation of rat thrombocytes ex vivo; type: in vivo, rat (male Sprague-Dawley); conditions: for ED (33%): Rattus norvegicus, read-out: Inhibition of thrombocyte aggregation, ED 33%; for Inhibition of thrombocyte aggregation, R.A. (relative activity): acetylsalicylic acid = 1.00; for Inhibition of thrombocyte aggregation after oral administration in vivo (in words): versus acetylsalicylic acid
Method: as §1
2. Inhibition of the collagen-induced aggregation of rat thrombocytes ex vivo.
The substances are administered orally to groups of 10-15 male Sprague-Dawley rat weighing 200-250 g. 1-4 hours after administration, blood is taken under ether narcosis and thrombocyte-rich plasma is obtained by centrifuging. The aggregation after addition of collagen is measured as indicated above. The ED 33% is determined as the dose which inhibits the collagen-induced thrombocyte aggregation by 33%.
as §2, §3

[1] = system: spontaneously hypertonic rats; assay: Anti-hypertensive effect on spontaneously hypertonic rats; type: in vivo, rat (male spontaneously hypertonic Okamoto); conditions: for ED (20%): Rattus norvegicus, 2 h, dose which lowers the blood pressure by 20% compared to the control group; for ED (20%) / Anti-hypertensive effect, R.A.: oral administration; for Anti-hypertensive effect, R.A.: dihydralazine = 1.00
Method: 4. Anti-hypertensive effect on spontaneously hypertonic rats.
The substances are administered orally to groups of 4-8 male spontaneously hypertonic Okamoto rats weighing 270-340 g. Before, and 2 hours after, the administration, the systolic blood pressure is measured non-surgically by means of piezo-electric crystal sensors.
The ED 20% is determined as the dose which lowers the systolic pressure by 20%, taking into account the values found with untreated control animals.
as §2, §3

[2] = human thrombocytes in vitro, concentration which inhibits the collagen-induced aggregation by 50%, 10 minutes incubation
[3] = rats, oral administration, dose which inhibits the collagen-induced aggregation by 33%

Row | EC50 (human thrombocytes; [2]) [µg/mL] | SMILES | Inhibition of aggregation, R.A. (relative activity) (human thrombocytes; human thrombocytes in vitro) | ED (20%) (narcotized rats) [mg/kg] | Reduction in blood pressure, R.A. (relative activity) (narcotized rats) | ED (33%) (rat thrombocytes; [3]) [mg/kg] | Inhibition of thrombocyte aggregation, R.A. (relative activity) (rat thrombocytes; rats, oral administration) | Inhibition of thrombocyte aggregation after oral administration in vivo (in words) (rat thrombocytes; rats) | ED (20%) [1] [mg/kg] | Anti-hypertensive effect in spontaneously hypertonic rats after oral administration (in words) [1] | Anti-hypertensive effect, R.A. [1] | EC50 (human thrombocytes; Homo sapiens) [µg/mL] | ED (33%) (rat thrombocytes; po) [mg/kg]
1 | 6.01 (≈ 19.7 µM) | O=C(Nc1ccc(C2=NNC(=O)C3CC23)cc1)c1ccccc1 (centres unmarked) [Example 30, 2-(p-benzoylaminophenyl)-3,4-diaza-bicyclo[4.1.0]hept-2-en-5-one] | 82 | > 10 | < 0.03 |  |  |  |  |  |  |  | 
2 | 3.52 (≈ 12.1 µM) | O=C(CCCl)Nc1ccc(C2=NNC(=O)C3CC23)cc1 (centres unmarked) [Example 19, 2-[p-(3-chloropropionylamino)-phenyl]-3,4-diaza-bicyclo[4.1.0]hept-2-en-5-one] | 140 | 0.688 | 0.49 |  |  |  |  |  |  |  | 
3 | 1.8 (≈ 6.35 µM) | CC1CC1C(=O)Nc1ccc(C2=NNC(=O)C3CC23)cc1 (centres unmarked) [Example 25, 2-[p-(2-methylcyclopropylcarbonylamino)-phenyl]-3,4-diaza-bicyclo[4.1.0]hept-2-en-5-one] | 274 | 0.649 | 0.52 |  |  |  |  |  |  |  | 
4 | 0.95 (≈ 3.42 µM) | O=C(CCl)Nc1ccc(C2=NNC(=O)C3CC23)cc1 (centres unmarked) [Example 12, 2-(p-chloroacetylaminophenyl)-3,4-diaza-bicyclo[4.1.0]hept-2-en-5-one] | 518 | 0.299 | 1.13 |  |  |  |  |  |  |  | 
5 | 2.27 (≈ 7.42 µM) | O=C(CCCCl)Nc1ccc(C2=NNC(=O)C3CC23)cc1 (centres unmarked) [Example 21, 2-[p-(4-chlorobutyrylamino)-phenyl]-3,4-diaza-bicyclo[4.1.0]hept-2-en-5-one] | 218 | 6.81 | 0.05 |  |  |  |  |  |  |  | 
6 | 0.28 (≈ 1.09 µM) | CCC(=O)Nc1ccc(C2=NNC(=O)C3CC23)cc1 (centres unmarked) [Example 11, 2-(p-propionylaminophenyl)-3,4-diaza-bicyclo[4.1.0]hept-2-en-5-one] | 1760 | 0.134 | 2.52 | 1.48 | 90.54 | far surpasses the effect of acetylsalicylic acid | 10 | demonstrable | 0.69 |  | 
7 | 5.09 (≈ 16.3 µM) | O=C(Nc1ccc(C2=NNC(=O)C3CC23)cc1)C1CCCCC1 (centres unmarked) [Example 28, 2-(p-cyclohexylcarbonylaminophenyl)-3,4-diaza-bicyclo[4.1.0]-hept-2-en-5-one] | 97 | 0.415 | 0.81 |  |  |  |  |  |  |  | 
8 | 0.38 (≈ 1.49 µM) | C=CC(=O)Nc1ccc(C2=NNC(=O)C3CC23)cc1 (centres unmarked) [Example 14, 2-(p-acryloylaminophenyl)-3,4-diaza-bicyclo[4.1.0]hept-2-en-5-one] | 1310 | 0.298 | 1.13 |  |  |  |  |  |  |  | 
9 | 1.42 (≈ 5.01 µM) | O=C(Nc1ccc(C2=NNC(=O)C3CC23)cc1)C1CCC1 (centres unmarked) [Example 27, 2-(p-cyclobutylcarbonylaminophenyl)-3,4-diaza-bicyclo[4.1.0]hept-2-en-5-one] | 348 | 0.398 | 0.85 |  |  |  |  |  |  |  | 
10 | 5.57 | O=C(Nc1ccc(C2=NNC(=O)C3CC23)cc1)C1CC1 (centres unmarked) [Example 13, 2-(p-cyclopropylcarbonylaminophenyl)-3,4-diaza-bicyclo[4.1.0]hept-2-en-5-one hemihydrate] | 89 | 0.0465 | 7.25 | 2.5 | 53.60 | far surpasses the effect of acetylsalicylic acid | 2.78 | demonstrable | 2.46 |  | 
11 | 6.81 (≈ 29.7 µM) | O=CNc1ccc(C2=NNC(=O)C3CC23)cc1 (centres unmarked) [Example 10, 2-(p-formylaminophenyl)-3,4-diaza-bicyclo[4.1.0]hept-2-en-5-one] | 73 | 0.253 | 1.33 |  |  |  |  |  |  |  | 
12 |  | CC(=O)Oc1ccccc1C(=O)O [Acetylsalicylic acid, reference compound] |  |  |  |  | 1.00 |  |  |  |  | 494 (≈ 2740 µM) | 134
13 | 3.99 (≈ 14 µM) | CCC(C)C(=O)Nc1ccc(C2=NNC(=O)C3CC23)cc1 (centres unmarked) [Example 18, 2-[p-(2-methylbutyrylamino)-phenyl]-3,4-diaza-bicyclo[4.1.0]hept-2-en-5-one] | 124 | 0.9 | 0.37 |  |  |  |  |  |  |  | 
14 | 1.91 (≈ 5.42 µM) | CC1(C(=O)Nc2ccc(C3=NNC(=O)C4CC34)cc2)CC1(Cl)Cl (centres unmarked) [Example 26, 2-[p-(2,2-dichloro-1-methylcyclopropylcarbonylamino)-phenyl]-3,4-diaza-bicyclo[4.1.0]hept-2-en-5-one] | 259 | 0.786 | 0.43 |  |  |  |  |  |  |  | 
15 |  | NNc1nnc(NN)c2ccccc12 [Dihydralazine, reference compound] |  | 0.337 | 1.0 |  |  |  | 6.85 |  | 1.00 |  | 
16 | 1.87 (≈ 6.89 µM) | CCCC(=O)Nc1ccc(C2=NNC(=O)C3CC23)cc1 (centres unmarked) [Example 15, 2-(p-butyrylaminophenyl)-3,4-diaza-bicyclo[4.1.0]hept-2-en-5-one] | 264 | 1.88 | 0.18 |  |  |  |  |  |  |  | 
17 | 4.88 (≈ 18 µM) | CC(C)C(=O)Nc1ccc(C2=NNC(=O)C3CC23)cc1 (centres unmarked) [Example 16, 2-(p-isobutyrylaminophenyl)-3,4-diaza-bicyclo[4.1.0]hept-2-en-5-one] | 101 | 0.402 | 0.84 |  |  |  |  |  |  |  | 
18 | 3.2 (≈ 9.81 µM) | CC(Cl)(Cl)C(=O)Nc1ccc(C2=NNC(=O)C3CC23)cc1 (centres unmarked) [Example 24, 2-[p-(2,2-dichloropropionylamino)-phenyl]-3,4-diaza-bicyclo[4.1.0]hept-2-en-5-one] | 154 | 10 | 0.03 |  |  |  |  |  |  |  | 
19 | 2.12 (≈ 7.87 µM) | C/C=C/C(=O)Nc1ccc(C2=NNC(=O)C3CC23)cc1 (centres unmarked) [Example 29, 2-(p-crotonoylaminophenyl)-3,4-diaza-bicyclo[4.1.0]-hept-2-en-5-one] | 233 | 1.71 | 0.20 |  |  |  |  |  |  |  | 
20 | 2.99 (≈ 9.58 µM) | O=C(Nc1ccc(C2=NNC(=O)C3CC23)cc1)C(Cl)Cl (centres unmarked) [Example 23, 2-(p-dichloroacetylaminophenyl)-3,4-diaza-bicyclo[4.1.0]hept-2-en-5-one] | 165 | 1.5 | 0.23 |  |  |  |  |  |  |  | 
21 | 3.47 (≈ 9.53 µM) | CC(C)(CBr)C(=O)Nc1ccc(C2=NNC(=O)C3CC23)cc1 (centres unmarked) [Example 22, 2-(p-bromopivaloylaminophenyl)-3,4-diaza-bicyclo[4.1.0]hept-2-en-5-one] | 142 | 2.96 | 0.11 |  |  |  |  |  |  |  | 
